According to US20100305124A1, “Acylated Aminopyridine and Aminopyridazine Insecticides” (BAYER CROPSCIENCE AG, priority 2009, published 2010):
Where two headings read alike, the source gives them in different places.

Tested on: green peach aphid (Myzus persicae)
Assay: Myzus test (MYZUPE), sprayed aubergine plants
Format: in vivo
Conditions: read-out: effect in % (aphids killed); for pest or weed control at 100 ppm: application rate of 100 ppm
Description: Solvent: 3 parts by weight of dimethylformamide Emulsifier: 1 part by weight of polyoxyethylenealkyl phenyl ether
An appropriate preparation of active ingredient is prepared by mixing 1 part by weight of active ingredient with the stated amount of solvent and emulsifier and diluting the concentrate with water to the desired concentration.
Aubergine plants (Solanum melongena) infested by all stages of the green peach aphid (Myzus persicae) are sprayed with a preparation of active ingredient at the desired concentration.
After the desired time, the effect in % is determined; here, 100% means that all of the aphids have been killed. Conversely, 0% means that no aphids have been killed.

[1] = application rate of 500 ppm, spray on aubergine plants

Row | SMILES | pest or weed control at 500 ppm [1] [%] | further results
1 | CSc1ccc(C(=O)N(C)c2cccnc2)cc1 [I-53] | ≥ 80 | 
2 | CN(C(=O)c1ccc(C(F)(F)C(F)(F)C(F)(F)F)nc1)c1cccnc1 [I-48] |  | pest or weed control at 500 ppm: ≥ 80%
3 | CC(=O)N(Cc1ccc(C(=O)N(C)c2cccnc2)cc1)CC(C)C [I-238] | ≥ 80 | 
4 | CCN(C(=O)c1ccc(Oc2ccc(C#N)cc2)nc1)c1cccnc1 [I-165] | ≥ 80 | 
5 | Cc1ccnc(Sc2ccc(C(=O)N(C)c3cccnc3)cn2)n1 [I-137] | ≥ 80 | 
6 | CCCCSCc1ccc(C(=O)Nc2cccnc2)cc1 [I-40] | ≥ 80 | 
7 | Cc1cc(C)nc(SCc2ccc(C(=O)N(C)c3cccnc3)cc2)n1 [I-70] | ≥ 80 | 
8 | CN(C(=O)c1ccc(Oc2ccc(Cl)c(Cl)c2)nc1)c1cccnc1 [I-115] | ≥ 80 | 
9 | CSCc1ccc(C(=O)Nc2cccnc2)cc1 [I-32] | ≥ 80 | 
10 | CC(C)SCc1ccc(C(=O)Nc2cccnc2)cc1 [I-34] | ≥ 80 | 
11 | CN(C(=O)c1ccc(Sc2ccc(C(F)(F)F)cc2)nc1)c1cccnc1 [I-118] | ≥ 80 | 
12 | CCN(C(=O)c1ccc(Sc2nc(OC)cc(OC)n2)cc1)c1cccnc1 [I-178] | ≥ 80 | 
13 | Cc1cc(C)nc(Sc2ccc(C(=O)Nc3cccnc3)cc2)n1 [I-179] | ≥ 80 | 
14 | O=C(Nc1cccnc1)c1ccc(Cn2cnc(C(F)(F)C(F)(F)F)n2)cc1 [I-17] | ≥ 80 | 
15 | Cc1ccc(C(=O)Nc2cccnc2)cn1 [I-38] | ≥ 80 | 
16 | CCCSCc1ccc(C(=O)Nc2cccnc2)cc1 [I-39] | ≥ 80 | 
17 | CN(C(=O)c1ccc([N+](=O)[O-])cc1)c1cccnc1 [I-21] | ≥ 80 | 
18 | Cc1cc(C)nc(Sc2ccc(C(=O)Nc3cccnc3)cn2)n1 [I-159] | ≥ 80 | 
19 | CC(C)SCc1ccc(C(=O)N(C)c2cccnc2)cc1 [I-61] | ≥ 80 | 
20 | C#CCN(C(=O)c1ccc(Sc2nc(C)cc(C)n2)nc1)c1cccnc1 [I-225] | ≥ 80 | 
21 | COc1cc(OC)nc(Sc2ccc(C(=O)N(C)c3cccnc3)cc2)n1 [I-177] | ≥ 80 | 
22 | CCN(C(=O)c1ccc(N(C)C(=O)C(F)(F)C(F)(F)C(F)(F)F)cc1)c1cccnc1 [I-248] |  | pest or weed control at 500 ppm: ≥ 80%
23 | CN(C(=O)c1ccc(NC(=O)CC(F)(F)F)cc1)c1cccnc1 [I-51] | ≥ 80 | 

Row | SMILES | pest or weed control at 500 ppm [1] [%] | further results
24 | CC(C)S(=O)(=O)c1ccc(Oc2ccc(C(=O)N(C)c3cccnc3)cn2)cc1 [I-130] | ≥ 80 | 
25 | CCCSc1ccc(C(=O)Nc2cccnc2)cc1 [I-68] | ≥ 80 | 
26 | Cc1ccc(Sc2ccc(C(=O)N(C)c3cccnc3)cn2)cc1 [I-105] | ≥ 80 | 
27 | CN(C)c1ccc(C(=O)Nc2cccnc2)cn1 [I-184] | ≥ 80 | 
28 | Cc1nc(Sc2ncc(C(=O)N(C)c3cccnc3)cc2Cl)nc(C)c1C [I-167] | ≥ 80 | 
29 | CN(C(=O)c1ccc(Oc2ccc(OC(F)(F)F)cc2)nc1)c1cccnc1 [I-95] |  | pest or weed control at 100 ppm (spray on aubergine plants): ≥ 80%
30 | CN(C(=O)c1ccc(NC(=O)C(F)(F)F)cc1)c1cccnc1 [I-52] | ≥ 80 | 
31 | Cc1cc(C)nc(Sc2ccc(C(=O)N(Cc3ccc(C#N)cc3)c3cccnc3)cn2)n1 [I-228] | ≥ 80 | 
32 | CN(C(=O)c1cccc(COc2ccc(C(F)(F)F)cc2)c1)c1cccnc1 [I-14] | ≥ 80 | 
33 | CC(=O)N(C)c1ccc(C(=O)Nc2cccnc2)cc1 [I-252] | ≥ 80 | 
34 | CCCN(C(=O)c1ccc(Oc2ccc(OC(F)(F)F)cc2)nc1)c1cccnc1 [I-133] | ≥ 80 | 
35 | Cc1cc(C)nc(Oc2ccc(C(=O)N(C)c3cccnc3)cc2)n1 [I-182] | ≥ 80 | 
36 | CN(C(=O)c1ccc(Sc2ncccn2)nc1)c1cccnc1 [I-136] | ≥ 80 | 
37 | CCN(C(=O)c1ccc(Oc2ccc(C(F)(F)F)cc2)nc1)c1cccnc1 [I-157] | ≥ 80 | 
38 | CS(=O)(=O)c1ccc(Oc2ccc(C(=O)Nc3cccnc3)cn2)cc1 [I-217] | ≥ 80 | 
39 | COc1cc(OC)nc(Oc2ccc(C(=O)Nc3cccnc3)cc2)n1 [I-170] | ≥ 80 | 
40 | Cc1cc(C)nc(Sc2ccc(C(=O)N(C)c3cccnc3)cn2)n1 [I-104] | ≥ 80 | 
41 | CCN(C(=O)c1ccc(Oc2ccc(OC(F)(F)F)cc2)nc1)c1cccnc1 [I-132] | ≥ 80 | 
42 | CCN(C(=O)c1ccc(Sc2ncccn2)nc1)c1cccnc1 [I-196] | ≥ 80 | 
43 | CCN(CC)C(=O)c1ccc(C(=O)N(CC)c2cccnc2)cc1 [I-251] | ≥ 80 | 
44 | Cc1ccc(Oc2ccc(C(=O)Nc3cccnc3)cc2)cn1 [I-103] | ≥ 80 | 
45 | CCN(C(=O)c1ccc(Oc2nc(C)cc(C)n2)nc1)c1cccnc1 [I-187] | ≥ 80 | 
46 | O=C(Nc1cccnc1)c1ccc(Cn2nc(C(F)(F)F)nc2C(F)(F)F)c(Cl)c1 [I-18] | ≥ 80 | 

Row | SMILES | pest or weed control at 500 ppm [1] [%] | further results
47 | O=C(Nc1cccnc1)c1ccc(Oc2ccccc2Cl)nc1 [I-82] | ≥ 80 | 
48 | COC(=O)c1cncc(Oc2ccc(C(=O)Nc3cccnc3)cn2)c1 [I-89] | ≥ 80 | 
49 | CCN(C(=O)c1ccc(Sc2nc(C)cc(C)n2)cc1)c1cccnc1 [I-180] | ≥ 80 | 
50 | Cc1cc(C)nc(Sc2ccc(C(=O)N(C)c3ccnnc3)cn2)n1 [I-222] | ≥ 80 | 
51 | CC#CCN(C(=O)c1ccc(Sc2nc(C)cc(C)n2)nc1)c1cccnc1 [I-226] | ≥ 80 | 
52 | O=C(Nc1cccnc1)c1ccc(Cn2ccc(C(F)(F)F)n2)nc1 [I-28] | ≥ 80 | 
53 | CCN(CC)C(=O)c1ccc(C(=O)Nc2cccnc2)cc1 [I-250] | ≥ 80 | 
54 | Cc1cc(C)nc(Oc2ccc(C(=O)N(C)c3cccnc3)cn2)n1 [I-144] | ≥ 80 | 
55 | CCN(C)C(=O)c1cc(C(=O)Nc2cccnc2)ccc1OC [I-76] | ≥ 80 | 
56 | CCCNc1ccc(C(=O)Nc2cccnc2)cn1 [I-209] | ≥ 80 | 
57 | Cc1ccnc(Sc2ncc(C(=O)N(C)c3cccnc3)cc2Cl)n1 [I-166] | ≥ 80 | 
58 | Cc1c(C(=O)Nc2cccnc2)cnn1-c1ncccc1Cl [I-1] |  | pest or weed control at 100 ppm (spray on aubergine plants): ≥ 80%
59 | CN(C(=O)c1ccc(Cn2cccn2)cc1)c1cccnc1 [I-23] | ≥ 80 | 
60 | CN(C(=O)c1ccc(Cn2ccc(C(F)(F)F)n2)cc1)c1cccnc1 [I-27, N-Methyl-N-(pyridin-3-yl)-4-{[3-(trifluoromethyl)-1H-pyrazol-1-yl]methyl}benzenecarboxamide] | ≥ 80 | 
61 | CC(=O)N(C)c1ccc(C(=O)N(C)c2cccnc2)cc1 [I-253] | ≥ 80 | 
62 | N#Cc1ccc(Oc2ccc(C(=O)Nc3cccnc3)cn2)cc1 [I-164] | ≥ 80 | 
63 | CN(C(=O)c1ccc(Cn2nc(C(F)(F)F)cc2C(F)(F)F)nc1)c1cccnc1 [I-49] | ≥ 80 | 
64 | COc1cc(OC)nc(Sc2ccc(C(=O)Nc3cccnc3)cn2)n1 [I-173] | ≥ 80 | 
65 | COc1nc(OC)nc(Sc2ccc(C(=O)Nc3cccnc3)cc2)n1 [I-188] | ≥ 80 | 
66 | COc1ccc(C(=O)N(C)c2cccnc2)cc1C(=O)NC(C)C [I-79] | ≥ 80 | 
67 | CN(C(=O)c1cnc(Oc2ccc(C#N)cc2)c(Cl)c1)c1cccnc1 [I-149] | ≥ 80 | 
68 | COc1ccc(Sc2ccc(C(=O)N(C)c3cccnc3)cn2)cc1 [I-106] | ≥ 80 | 
69 | CCN(C(=O)c1ccc(N(C)C(C)=O)cc1)c1cccnc1 [I-254] | ≥ 80 | 

Row | SMILES | pest or weed control at 500 ppm [1] [%] | further results
70 | CN(C(=O)c1cccc(Cn2cnc(C(F)(F)F)n2)c1)c1cccnc1 [I-12] | ≥ 80 | 
71 | CN(C(=O)c1ccc(Oc2cc(C(F)(F)F)cc(C(F)(F)F)c2)nc1)c1cccnc1 [I-124] | ≥ 80 | 
72 | CSCc1cccc(C(=O)Nc2cccnc2)c1 [I-16] | ≥ 80 | 
73 | CCN(C(=O)c1ccc(Sc2nc(OC)nc(OC)n2)cc1)c1cccnc1 [I-190] | ≥ 80 | 
74 | CN(C(=O)c1cnc(Oc2ccc(S(C)(=O)=O)cc2)c(Cl)c1)c1cccnc1 [I-148] | ≥ 80 | 
75 | CCN(C(=O)c1ccc(Sc2nc(OC)cc(OC)n2)nc1)c1cccnc1 [I-175] | ≥ 80 | 
76 | CN(C(=O)c1ccc(Oc2ccc(Cl)cc2C#N)nc1)c1cccnc1 [I-113] | ≥ 80 | 
77 | CN(C(=O)c1ccc(Oc2ccc(Cl)cc2Cl)nc1)c1cccnc1 [I-114] | ≥ 80 | 
78 | CCSc1ccc(C(=O)N(C)c2cccnc2)cc1 [I-56] | ≥ 80 | 
79 | O=C(Nc1cccnc1)c1ccc(CSC(F)F)cc1 [I-35] | ≥ 80 | 
80 | COc1ccc(Oc2ccc(C(=O)Nc3cccnc3)cn2)cc1 [I-81] | ≥ 80 | 
81 | CCN(C(=O)c1ccc(SC)cc1)c1cccnc1 [I-63] | ≥ 80 | 
82 | O=C(Nc1cccnc1)c1ccc(Cn2nc(C(F)(F)F)cc2C(F)(F)F)nc1 [I-9] | ≥ 80 | 
83 | CN(C(=O)c1ccc(CSC(F)F)cc1)c1cccnc1 [I-62] | ≥ 80 | 
84 | CSc1ccc(C(=O)N(C)c2cccnc2)cn1 [I-110] | ≥ 80 | 
85 | CSc1ccc(C(=O)Nc2cccnc2)cc1 [I-36] | ≥ 80 | 
86 | CN(C(=O)c1ccc(Cn2nc(C(F)(F)F)nc2C(F)(F)F)cc1)c1cccnc1 [I-26] | ≥ 80 | 
87 | Cc1cc(C)nc(Sc2ccc(C(=O)N(Cc3ccc(OC(F)(F)F)cc3)c3cccnc3)cn2)n1 [I-230] | ≥ 80 | 
88 | CCN(C(=O)c1ccc(/C=N/OC(C)C)cc1)c1cccnc1 [I-236] | ≥ 80 | 
89 | O=C(Nc1cccnc1)c1ccc(Oc2ccc(Br)cc2)nc1 [I-84] | ≥ 80 | 
